# Results as given in patent publication US7473708B2, “Agents with leukotriene B4-like antiviral (enveloped RNA) activities” (priority 1996, dated 2009).
# Values joined by “and” are separate entries in the source; they are usually repeats but may differ in a detail not shown here. Identical values can stand only once. “Also recorded” adds a separate entry of the source.
# Assays:
# EBV [1] = assay: Synthesis of EBV particles in B95-8 cells; details: for inhibition of production of EBV particles (decrease of EBNA antigen positive cells): 14 days
# Procedure: In order to evaluate the effects of LTB4 on the production of newly synthesized viral particles, B95-8 cells, in which EBV replicates, was cultured in the presence or absence of LTB4 (to the concentrations indicated in FIG. 3 at days 0, 5 and 10) during 14 days. The cells were grown in RPMI-1640 medium supplemented with 10% heat inactivated fetal bovine serum (FBS) . […] Viral titers were measured by ACIF test on PBMC and expressed in transforming units per ml (TFU/ml). PBMC were then infected with these different EBV preparations and the presence of EBNA was assessed by immunofluorescence (ACIF test).
# HIV (93US151) = assay: HIV infection in vivo, SCID mice reconstituted with human PBMC
# EBV [2] = assay: Detection of Epstein-Barr Nuclear Antigen (EBNA) in EBV-infected PBMC (ACIF test); assay type: cell-based, human; details: 100 nM LTB4, added days 0, 3, 6, 9; ten days of culture
# Procedure: After ten days of culture, cells were harvested for determination of the presence of Epstein-Barr Nuclear Antigen (EBNA), a consequence of EBV infection. Preparation of cell smears, fixation and detection of EBNA by the anti-complement immunofluorescence (ACIF) test were carried out as described by Reedman B. M. and Klein G. (Int. J. Cancer, 1973, 11:499). Smears were prepared by spreading 50 μl of a concentrated suspension of washed cells (2×10^6/ml) on clean slides, air dried and fixed in cold acetone (−20° C.) during 10 minutes. Human serum (50 μl) from EBV seropositive donor was used as a source of complement. Slides were incubated at room temperature in a humid chamber during 45 minutes. Slides were then washed three times in phosphate buffer saline (PBS) and stained with 50 μl of fluorescein-5-isothiocyanate (FITC “Isomer I”)-conjugated goat IgG fraction anti-human complement C3 (Cappel Research Products, Durham, N.C.) during 60 minutes at room temperature in a humid chamber. Slides were washed in PBS (3 times), mounted in PBS:glycerol 1:1 and examined. Raji and U937 cells were used as positive and negative controls, respectively. The percentage of EBNA-positive cells was decreased by more than 55% with 30 nM LTB4, and by more than 70% with 100 nM LTB4 (FIG. 2). The results illustrated in FIG. 2 are representative of six (6) other experiments.
# (§1) PBMC were infected with EBV and HSV-1 and treated or not with 100 nM of analogs of LTB4 such as 20-OH-LTB4, LTA3 methyl ester, 12(R)-HETE and 5(S), 15(S)-diHETE. After six days of culture, the presence of EBNA antigen (a consequence of EBV infection) was evaluated by the ACIF test, as described in Example I. Similarly, the presence of HSV-1 antigen in PBMC was evaluated by immunofluorescence using an antiserum obtained from a chronically infected donor as described above in section entitled “Detection of Specific HSV-1 Antigen”. […] The results illustrated in Table 1 are representative of three other experiments.
# [3] = test system: coronavirus strain HCoV-OC43; assay: Human coronavirus infection in lungs of mice; assay type: in vivo; details: for coronavirus viral load in lungs, per mouse: day 6
# Procedure: The antiviral effect of LTB4 in controlling pneumonia caused by coronavirus was evaluated in an in vivo model using C57BL/6 mice (8 day old). Mice were infected (n=6/group) intranasally with 10 μl of coronavirus suspension (10^4 PFU, strain HCoV-OC43). Twenty-four hours post-infection, mice were treated intranasally with a placebo or with varying doses of LTB4 (5 ng/dose or 50 ng/dose). Mice were treated once a day during 5 days, and were sacrificed and autopsied on day 6. Lungs of mice were surgically removed and the viral load was titrated on HRT-18 cell line.
# HSV-1 (strain McIntyre) = assay: Detection of specific HSV-1 antigen in HSV-1-infected PBMC (immunofluorescence); assay type: cell-based, human; details: specific antiserum from a chronically infected donor
# Procedure: Synthesis of the viral antigen was inhibited by 60% in the presence of 100 nM LTB4 (FIG. 4). The results illustrated in FIG. 4 are representative of five (5) other experiments.
# as §1
# HSV-1 strain E-377 = assay: HSV-1 infection in vivo, hairless mice
# HIV-1 strain 89.6 = assay: HIV ex vivo model, human tonsillar tissue, p24 release; assay type: cell-based; details: tonsil blocks, LTB4 0.01, 0.1 and 1 μM
# Excerpt: An ex vivo model that retains the cellular organization found in normal human lymphoid tissue was used. The selected lymphoid tissues were tonsils. […] Such an ex vivo model is used to study HIV pathogenesis and potency of antiviral agents such as AZT (Zidovudine) by many laboratories.
# Human tonsillar tissues from two different individuals were removed during routine tonsillectomy and were received within five hours of excision. The tonsils were washed thoroughly with medium supplemented with antibiotics and then sectioned into 2-3 mm blocks. These tissue blocks were placed in culture medium at the air-liquid interface on the top surface of collagen sponge gels and were pretreated for 10 min with the indicated concentrations of LTB4 (0.01, 0.1 and 1 μM). Next, HIV-1 particles (400 TCID50 of HIV-1 strain 89.6) were applied at the top of each tissue block. The next day, the culture medium was completely removed and replaced with fresh medium supplemented with a final concentration of LTB4 (0.01, 0.1 and 1 μM). This step is necessary in order to remove unadsorbed and uninternalized virus particles. Productive HIV-1 infection was assessed every 3 to 4 days by measuring p24 in the culture medium using a viral core p24 antigen enzyme-linked immunosorbent assay. […]
# HIV-1 = assay: Synthesis of HIV-1 particles in J1.1 cells (end-point titration, TCID50); assay type: cell-based; details: for percentage of inhibition of HIV-1 particles synthesis: 48 hours
# Procedure: This set of experiments was carried out with the J1.1 cell line, a latently […] cell line derived from the parental cell line Jurkat E6.1. J1.1 cells were resuspended at a density of 10^6 cells/ml in culture medium (RPMI-1640 supplemented with 10% FBS) and were stimulated with the phorbol ester PM-A (20 ng/ml) in the absence or the presence of increasing concentrations of LTB4 (0,30, 100 nM). LTB4 was again added (to the same concentrations) 24 hours after the initiation of the cultures.
# End-point titration was carried out in flat-bottom microtiter wells using four parallel series of ten-fold dilutions of cell-free supernatants. After 5 to 7 days of incubation with MT-4 cells, cell-free supernatants were harvested and tested for the major viral core p24 protein by a commercially available enzymatic assay. The TCID50 was calculated by the method of Reed and Muench.
# [4] = LTB4 10 μg i.p. days 0, 1, 3, 5, 7, 9
smiles,measurement,setting,value
"CCCCC/C=C\C[C@@H](O)/C=C/C=C/C=C\[C@@H](O)CCCC(=O)O [LTB4, 5S,12R-dihydroxy-6,8,10,14 (Z,E,E,Z)-eicosatetraenoic acid]",inhibition of production of EBV particles (decrease of EBNA antigen positive cells),"EBV [1]; 30 nM LTB4, B95-8 cells",70%
same,inhibition of production of EBV particles (decrease of EBNA antigen positive cells),"EBV [1]; 100 nM LTB4, B95-8 cells",85%
same,inhibition of formation of new EBV particles,"EBV [1]; B95-8 cells, concentration not stated (summary)",> 80%
same,percentage of CD4+ T cell survival versus placebo,"HIV (93US151); LTB4 1, 10 or 100 ng/mouse i.p. once a day, day 14 P.I.",significantly increased
same,HIV plasma viral loads versus placebo,"HIV (93US151); LTB4 i.p. once a day, days 7 and 14 P.I.",reduced
same,decrease of percentage of EBNA-positive cells,EBV [2],more than 70%
same,"coronavirus viral load in lungs, per mouse",[3]; LTB4 5 ng/dose/mouse intranasal once a day 5 days,N.D. (below detection limit of 32 TCID50/lungs)
same,"coronavirus viral load in lungs, per mouse",[3]; LTB4 50 ng/dose/mouse intranasal once a day 5 days,N.D. (below detection limit of 32 TCID50/lungs)
same,number of coronavirus particles in lungs versus placebo,[3]; infected mice,significantly reduces; also recorded: reduced
same,inhibition of synthesis of HSV-1 antigen,HSV-1 (strain McIntyre),75%
same,course of skin lesions,"HSV-1 strain E-377; HSV-1-infected hairless mice, LTB4 i.p.",regressed from day 8; also recorded: smaller and disappeared more rapidly
same,Survival at day 14,"HSV-1 strain E-377; HSV-1-infected, LTB4 10 μg i.p.",100%
same,"Infection-associated symptoms score, Day 4",HSV-1 strain E-377; [4],0
same,"Infection-associated symptoms score, Day 6",HSV-1 strain E-377; [4],0
same,"Infection-associated symptoms score, Day 8",HSV-1 strain E-377; [4],0
same,"Infection-associated symptoms score, Day 10",HSV-1 strain E-377; [4],0
same,"Size of infected skin lesions, Day 4",HSV-1 strain E-377; [4],≤ 0.5 cm
same,"Size of infected skin lesions, Day 6",HSV-1 strain E-377; [4],1-3 cm
same,"Size of infected skin lesions, Day 8",HSV-1 strain E-377; [4],1-3 cm
same,"Size of infected skin lesions, Day 10",HSV-1 strain E-377; [4],≤ 0.2 cm
same,lesions smaller than those of HSV-1-infected untreated Group 2,HSV-1 strain E-377; lesions developed from days 0 to 4,~80%
same,infection-associated symptoms and general status,HSV-1 strain E-377; throughout the experiment,posterior limb inflammation and skinniness were not observed
same,inhibition of the replicative cycle of HIV-1 (p24 release),HIV-1 strain 89.6,more than 75%
same,percentage of inhibition of HIV-1 particles synthesis,HIV-1; LTB4 30 nM,49% and 50% and 56%
same,percentage of inhibition of HIV-1 particles synthesis,HIV-1; LTB4 100 nM,55% and 61% and 79%
same,inhibition of formation of new HIV-1 particles,HIV-1; concentration not stated (summary),> 55%
